Source: PubChem BioAssay (NCI)
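Assay format: 96-well plates, 48-hour exposure. TGI: concentration producing complete growth inhibition.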

Columns and labels:
Test in all cases: DTP human tumour cell line panel, 48 h
HL-60(TB) leukemia = system: HL-60(TB) leukemia
OVCAR-4 ovarian = system: OVCAR-4 ovarian
DMS 273 small cell lung = system: DMS 273 small cell lung
RXF-631 renal = system: RXF-631 renal
HCT-15 colon = system: HCT-15 colon
K-562 leukemia = system: K-562 leukemia
RPMI-8226 leukemia = system: RPMI-8226 leukemia
HOP-92 NSCLC = system: HOP-92 NSCLC
CAKI-1 renal = system: CAKI-1 renal
A549 NSCLC = system: A549 NSCLC
SF-268 CNS = system: SF-268 CNS
SF-539 CNS = system: SF-539 CNS
UACC-62 melanoma = system: UACC-62 melanoma
RXF 393 renal = system: RXF 393 renal
CCRF-CEM leukemia = system: CCRF-CEM leukemia
SN12C renal = system: SN12C renal
LXFL 529 NSCLC = system: LXFL 529 NSCLC
SR leukemia = system: SR leukemia
MALME-3M melanoma = system: MALME-3M melanoma
SNB-78 CNS = system: SNB-78 CNS
UACC-257 melanoma = system: UACC-257 melanoma
SK-MEL-28 melanoma = system: SK-MEL-28 melanoma
M14 melanoma = system: M14 melanoma
XF 498 CNS = system: XF 498 CNS
U251 CNS = system: U251 CNS
LOX IMVI melanoma = system: LOX IMVI melanoma
ACHN renal = system: ACHN renal
OVCAR-3 ovarian = system: OVCAR-3 ovarian
TK-10 renal = system: TK-10 renal
HCT-116 colon = system: HCT-116 colon
M19-MEL melanoma = system: M19-MEL melanoma
NCI-H226 lung = system: NCI-H226 lung
IGROV1 ovarian = system: IGROV1 ovarian
A498 renal = system: A498 renal
NCI-H460 lung = system: NCI-H460 lung
SNB-19 CNS = system: SNB-19 CNS
COLO 205 colon = system: COLO 205 colon
SK-MEL-5 melanoma = system: SK-MEL-5 melanoma
KM12 colon = system: KM12 colon
786-0 renal = system: 786-0 renal
MOLT-4 leukemia = system: MOLT-4 leukemia
DLD-1 colon = system: DLD-1 colon
NCI-H522 lung = system: NCI-H522 lung
HCC-2998 colon = system: HCC-2998 colon
KM20L2 colon = system: KM20L2 colon
HOP-18 NSCLC = system: HOP-18 NSCLC
HT29 colon = system: HT29 colon
OVCAR-5 ovarian = system: OVCAR-5 ovarian
SW-620 colon = system: SW-620 colon
SF-295 CNS = system: SF-295 CNS
HOP-62 NSCLC = system: HOP-62 NSCLC
OVCAR-8 ovarian = system: OVCAR-8 ovarian
NCI-H23 lung = system: NCI-H23 lung
SK-MEL-2 melanoma = system: SK-MEL-2 melanoma
SNB-75 CNS = system: SNB-75 CNS
DMS 114 small cell lung = system: DMS 114 small cell lung
UO-31 renal = system: UO-31 renal
SK-OV-3 ovarian = system: SK-OV-3 ovarian
EKVX NSCLC = system: EKVX NSCLC

Measured: TGI

OCC1OC(NO)C(O)C(O)C1O (stereo unspecified)
not listed: SK-MEL-2 melanoma | SNB-75 CNS | DMS 114 small cell lung | UO-31 renal | SK-OV-3 ovarian | EKVX NSCLC
> 100 µM: all other assays above

Cc1ccccc1C1SCc2nc3ccccc3n21 (stereo unspecified)
49.5 µM: HOP-92 NSCLC
not listed: OVCAR-4 ovarian | RXF-631 renal | HCT-15 colon | LXFL 529 NSCLC | SR leukemia | M14 melanoma | XF 498 CNS | LOX IMVI melanoma | A498 renal | NCI-H460 lung | MOLT-4 leukemia | KM20L2 colon | HT29 colon | SW-620 colon | HOP-62 NSCLC
> 100 µM: all other assays above

CC1O[C@@H]2CCCCC(=O)[C@]2(C)[C@H]1C (stereo partly specified)
not listed: SF-268 CNS | SF-539 CNS | SR leukemia | A498 renal | NCI-H522 lung | NCI-H23 lung
> 100 µM: all other assays above

O=C1C2=C(c3ccccc31)C(c1ccc([N+](=O)[O-])cc1)NC(=S)N2 (stereo unspecified)
98.6 µM: SNB-75 CNS
not listed: RXF 393 renal | SR leukemia | SNB-78 CNS | LOX IMVI melanoma | HCC-2998 colon | HOP-18 NSCLC | OVCAR-8 ovarian
> 100 µM: all other assays above

Oc1ccccc1-c1cnnc(-c2ccccc2O)c1
83.5 µM: ACHN renal
92.9 µM: EKVX NSCLC
44.3 µM: UO-31 renal
49.9 µM: HOP-92 NSCLC
53.5 µM: UACC-257 melanoma
65.1 µM: SF-539 CNS
64.3 µM: HT29 colon
43.3 µM: M14 melanoma
58.2 µM: LXFL 529 NSCLC
41.7 µM: COLO 205 colon
51.2 µM: RPMI-8226 leukemia
36.5 µM: CCRF-CEM leukemia
44.2 µM: HCT-116 colon
66.5 µM: MOLT-4 leukemia
64.7 µM: MALME-3M melanoma
41 µM: LOX IMVI melanoma
44.1 µM: HL-60(TB) leukemia
44.6 µM: OVCAR-3 ovarian
65.2 µM: CAKI-1 renal
56.5 µM: RXF 393 renal
36.6 µM: 786-0 renal
> 100 µM: OVCAR-4 ovarian | K-562 leukemia | SF-268 CNS | SN12C renal | SNB-78 CNS | TK-10 renal | DLD-1 colon | SW-620 colon
84.3 µM: KM20L2 colon
43.6 µM: SK-MEL-2 melanoma
34 µM: UACC-62 melanoma
96.6 µM: HOP-18 NSCLC
73.9 µM: NCI-H226 lung
57.4 µM: OVCAR-8 ovarian
32.3 µM: XF 498 CNS
51.6 µM: SNB-75 CNS
75.1 µM: SR leukemia
38.3 µM: DMS 114 small cell lung
41.3 µM: NCI-H522 lung
61.8 µM: M19-MEL melanoma | OVCAR-5 ovarian
72.8 µM: SK-OV-3 ovarian
88.3 µM: SK-MEL-28 melanoma

CCCCCCCCCCCCCC(=O)OCC1OC(=O)C(O)C1O (stereo unspecified)
not listed: DMS 273 small cell lung | RXF-631 renal | HCT-15 colon | RXF 393 renal | SNB-78 CNS | NCI-H460 lung | SK-MEL-2 melanoma
> 100 µM: all other assays above

O=C1C2Cc3ccccc3CN2C(=O)N1CN1CCCCC1 (stereo unspecified)
88.3 µM: HL-60(TB) leukemia
not listed: RXF-631 renal | HOP-92 NSCLC | RXF 393 renal | SNB-78 CNS | UACC-257 melanoma | HCT-116 colon | HOP-18 NSCLC | HT29 colon | SNB-75 CNS | SK-OV-3 ovarian | EKVX NSCLC
> 100 µM: all other assays above
